Drawing on patent US20220395542A1, “Nutritional Compositions for Treating a Clostridium Difficile Infection” (ABBOTT LABORATORIES, priority 2019, published 2022), this text covers CD cell count for one compound.

The subject of the assay is C. difficile. Briefly: in vitro gut digestion and fermentation model (SHIME PathoGut) assessing CDI and CDI recurrence. To be noted: control experiments (FIGS. 1 and 2); vancomycin 125 mg/L three times per day for seven days after the 4 weeks of CDI. In kind it is cell-based, Clostridium difficile.

On to `CN[C@H](CC(C)C)C(=O)N[C@H]1C(=O)N[C@@H](CC(N)=O)C(=O)N[C@H]2C(=O)N[C@H]3C(=O)N[C@H](C(=O)N[C@H](C(=O)O)c4cc(O)cc(O)c4-c4cc3ccc4O)[C@H](O)c3ccc(c(Cl)c3)Oc3cc2cc(c3O[C@@H]2O[C@H](CO)[C@@H](O)[C@H](O)[C@H]2O[C@H]2C[C@](C)(N)[C@H](O)[C@H](C)O2)Oc2ccc(cc2Cl)[C@H]1O` [vancomycin], for which the CD cell count entry was “below detectable levels”.
